Test results reported in patent publication US8859572B2, “Sulfone substituted 2,3-dihydroimidazo [1,2-C] quinazoline derivatives useful for treating hyper-proliferative disorders and diseases with angiogenesis” (Bayer Intellectual Property GmbH, priority 2008, dated 2014).

These compounds were tested against T1, PI3Kβ (recombinant truncated form (ΔN1-108) of the human p110β subunit of PI3K) (Homo sapiens, UniProt P42338) (assay: Solid-phase lipid kinase assay of PI3Kβ). Settings: 7.5 ng protein/well, final 10 μM ATP, 2 h at rt.
T1 construct: His6 (N); made in house; host or cells: Spodoptera frugiperda Sf9 insect cells
Type: biochemical
Experimental: To assess inhibition of PI3Kα by compounds, the Maxisorp™ plates were coated with 50 μL/well of a solution containing 50 μg/ml PtdIns and 50 μg/ml PtdSer dissolved in chloroform:ethanol (3:7). The plates were subsequently air-dried by incubation for at least 2 h in a fume hood. The reaction was set up by mixing 25 μL/well of assay buffer 2×(100 mM MOPSO/NaOH, 0.2 M NaCl, pH 7.0, 8 mM MgCl2, 2 mg/mL BSA (fatty acid-free)), and 7.5 ng/well PI3Kα in the lipid pre-coated plate. Test compounds at different concentrations (0.0, 0.003, 0.01 0.03, 0.1, 0.3, 1.0, 3.0 and 10 μM) were added in 2% DMSO. The reaction was initiated by adding 20 μL/well of ATP mix (final 10 μM ATP; 0.05 μCi/well [γ^33P]ATP). After incubation at rt for 2 h, the reaction was terminated by adding 50 μl/well stop solution (50 mM EDTA, pH 8.0). The plate was then washed twice with Tris-buffered saline (TBS, pH 7.4). MicroScint PS™ (PACKARD) scintillation mix was added at 100 μL/well, and radioactivity was counted using a TopCount™ (PACKARD) scintillation counter.
The inhibition percent at each concentration of compound was calculated, and IC50 values were determined from the inhibition of curve.
A recombinant truncated form (ΔN1-108) of the human p110β subunit of PI3K with an N-terminal His6-Tag was expressed in S. frugiperda 9 insect cells. Recombinant human PI3Kγ (full length human PI3K p110γ fused with a His6-tag at the C-terminus expressed in S. frugiperda 9 insect cells) was obtained from ALEXIS BIOCHEMICALS (#201-055-0010; San Diego, Calif.).
Kinase assays using recombinant truncated p110β or the full length p110γ were performed in a similar manner as described in the determination of IC50 values of compounds in the kinase assay of PI3Kα except that these isoforms were assayed using 7.5 ng and 25.0 ng of protein/well, respectively.

T1 sequence (P42338 109-1070): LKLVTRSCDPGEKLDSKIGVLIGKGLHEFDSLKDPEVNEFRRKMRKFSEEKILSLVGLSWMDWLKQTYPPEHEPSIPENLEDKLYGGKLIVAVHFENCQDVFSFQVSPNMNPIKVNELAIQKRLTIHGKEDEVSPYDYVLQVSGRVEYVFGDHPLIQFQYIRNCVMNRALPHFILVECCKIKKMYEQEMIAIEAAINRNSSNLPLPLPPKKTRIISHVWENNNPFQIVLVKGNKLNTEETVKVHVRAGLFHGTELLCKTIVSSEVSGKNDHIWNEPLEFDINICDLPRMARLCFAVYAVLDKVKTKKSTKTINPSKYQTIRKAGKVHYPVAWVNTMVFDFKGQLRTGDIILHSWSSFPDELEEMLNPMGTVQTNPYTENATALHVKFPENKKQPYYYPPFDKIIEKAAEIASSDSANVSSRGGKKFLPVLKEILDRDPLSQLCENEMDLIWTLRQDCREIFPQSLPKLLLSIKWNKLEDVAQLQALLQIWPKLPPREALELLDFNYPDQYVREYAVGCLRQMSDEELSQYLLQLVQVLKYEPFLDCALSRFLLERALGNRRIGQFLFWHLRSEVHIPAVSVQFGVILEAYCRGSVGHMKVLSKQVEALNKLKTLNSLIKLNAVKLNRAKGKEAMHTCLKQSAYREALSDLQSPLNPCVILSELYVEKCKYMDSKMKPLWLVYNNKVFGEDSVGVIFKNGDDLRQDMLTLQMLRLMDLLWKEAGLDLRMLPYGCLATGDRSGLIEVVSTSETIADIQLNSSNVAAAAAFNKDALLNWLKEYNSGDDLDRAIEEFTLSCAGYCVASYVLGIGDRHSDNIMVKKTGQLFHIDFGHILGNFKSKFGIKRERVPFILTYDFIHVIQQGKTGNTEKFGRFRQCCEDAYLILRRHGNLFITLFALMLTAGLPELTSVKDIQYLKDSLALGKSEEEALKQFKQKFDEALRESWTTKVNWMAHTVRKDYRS

Compound	IC50 [µM]
CN1CCN(S(=O)(=O)CCCOc2c(OCCCN3CCOCC3)ccc3c2N=C(NC(=O)c2cccnc2)N2CCN=C32)CC1 [Example 13, N-[7-{3-[(4-methylpiperazin-1-yl)sulfonyl]propoxy}-8-(3-morpholin-4-ylpropoxy)-2,3-dihydroimidazo[1,2-c]quinazolin-5-yl]nicotinamide]	< 0.1
COc1c(OCCOCCNS(C)(=O)=O)ccc2c1N=C(NC(=O)c1cccnc1)N1CCN=C21 [Example 31, N-[7-methoxy-8-(2-{2-[(methylsulfonyl)amino]ethoxy}ethoxy)-2,3-dihydroimidazo[1,2-c]quinazolin-5-yl]nicotinamide]	< 0.1
CS(=O)(=O)Oc1c(OCCCN2CCOCC2)ccc2c1N=C(NC(=O)c1cccnc1)N1CCN=C21 [Example 37, 8-(3-morpholin-4-ylpropoxy)-5-[(pyridin-3-ylcarbonyl)amino]-2,3-dihydroimidazo[1,2-c]quinazolin-7-yl methanesulfonate]	< 0.1
O=C(NC1=Nc2c(OCCCN3CCS(=O)(=O)CC3)cccc2C2=NCCN12)c1cccnc1 [Example 9, N-{7-[3-(1,1-dioxidothiomorpholin-4-yl)propoxy]-2,3 dihydroimidazo[1,2-c]quinazolin-5-yl}nicotinamide]	0.1 to 3
COc1c(OCc2ccc(S(C)(=O)=O)cc2)ccc2c1N=C(NC(=O)c1ccc(N)nc1)N1CCN=C21 [Example 20, 6-amino-N-(7-methoxy-8-{[4-(methylsulfonyl)benzyl]oxy}-2,3-dihydroimidazo[1,2-c]quinazolin-5-yl)nicotinamide]	< 0.1
COc1c(OCc2ccc(S(C)(=O)=O)cc2)ccc2c1N=C(NC(=O)c1cccnc1)N1CCN=C21 [Example 2, N-(7-methoxy-8-{[4-(methylsulfonyl)benzyl]oxy}-2,3-dihydroimidazo[1,2-c]quinazolin-5-yl)nicotinamide]	0.1 to 3
COc1c(OCCOCCNS(=O)(=O)c2ccc(C)cc2)ccc2c1N=C(NC(=O)c1cccnc1)N1CCN=C21 [Example 34, N-{7-methoxy-8-[2-(2-{[(4-methylphenyl)sulfonyl]amino}ethoxy)ethoxy]-2,3-dihydroimidazo[1,2-c]quinazolin-5-yl}nicotinamide]	< 0.1
CS(=O)(=O)c1ccc(COc2ccc3c(c2)N=C(NC(=O)c2cccnc2)N2CCN=C32)cc1 [Example 26, N-(8-{[4-(methylsulfonyl)benzyl]oxy}-2,3-dihydroimidazo[1,2-c]quinazolin-5-yl)nicotinamide]	0.1 to 3
